pIC50, pKi: −log10 of the molar value. Structures can show the parent of a compound that is named as a salt.
What was measured:
Adrenergic alpha2C = Adrenergic alpha2C (Homo sapiens, UniProt P18825); experiment: Adrenergic alpha2C binding
Protocol: (§1) Curves are evaluated using a 4-parameter logistic nonlinear equation to obtain the concentration of competitor causing 50% inhibition of radioligand binding (IC50). Equilibrium dissociation constants (Ki) are calculated according to the equation Ki=IC50/(1+L/Kd), where L equals the concentration of radioligand used in the experiment and Kd equals the equilibrium dissociation constant of the radioligand for the receptor, determined from standard saturation analysis or homologous competition experiments. Reported values for Ki, where n values are indicated, are shown as geometric mean±the standard error of the mean (SEM), with the number of replicate determinations indicated by n. Geometric means are calculated by the equation GeoMean=10̂(Average(log Ki 1+log Ki 2+ . . . log Ki n)/[…]).
(§2) Further, the compounds of the invention may be tested in binding assays and functional activity assays by well known methods for other physiologically important receptors such as, but not limited to, the hERG channel, other serotonin receptors (specifically 5-HT1B receptors, lack of agonist activity at 5-HT2B receptors, 5-HT2C, 5-HT5, 5-HT6, and 5-HT7 receptors), dopaminergic receptors (specifically D1, D2, and D3), H1 receptors, GABAA receptors, adrenergic receptors and monoamine transporters.

Norepinephrine Transport = Norepinephrine Transport (Homo sapiens, UniProt P23975); experiment: Norepinephrine transporter binding
Protocol: as §1, §2

[1] = molecular target: T1, recombinant 5-HT2C receptors (human) (Homo sapiens, UniProt P28335); experiment: 5-HT2C competition binding assay ([125I]-(±)DOI, SPA)
T1 construct: expressed in transfected cells
Protocol: [^125I]-(±)DOI binding experiments are carried out in SPA 96-well format. Membranes used in this assay are prepared from AV-12 cells stably expressing recombinant 5-HT2C receptors (human). The incubation is initiated by the addition of a mixture of WGA PVT SPA beads (0.5 mg/well, Perkin Elmer (MA, USA), RPNQ0001) and 2.5 μg membranes to assay buffer (50 mM Tris-HCl, 10 mM MgCl2, 0.5 mM EDTA, 10 μM pargyline, 0.1% ascorbic acid, pH7.4) containing 0.2 nM [[^125I]-(±)DOI and varying concentrations of the test compound (10 point concentration response curves). Non-specific binding is determined in the presence of 20 μM 1-(1-naphthyl)piperazine. Samples are incubated for 4 hr. at room temperature (22° C.) and then read in a microplate scintillation counter.
(§3) Curves are evaluated using a 4-parameter logistic nonlinear equation to obtain the concentration of competitor causing 50% inhibition of radioligand binding (IC50). Equilibrium dissociation constants (Ki) are calculated according to the equation Ki=IC50/(1+L/Kd), where L equals the concentration of radioligand used in the experiment and Kd equals the equilibrium dissociation constant of the radioligand for the receptor, determined from standard saturation analysis or homologous competition experiments. […]

native GABAA receptors = experiment: GABAA antagonism using native receptors in primary neuronal cultures (FLIPR calcium flux); format: cell-based; conditions: against 10 μM GABA, rat cortical embryonic neurons
Protocol: Activity of compounds on native GABAA receptors is evaluated by monitoring calcium fluxes using a 96 well format FLIPR® system (Fluorometric Imaging Plate Reader (FLIPR®, Molecular Devices). Briefly, cortical embryonic neurons are dissociated from E18 rat embryos and plated at optimum density into black-walled, transparent bottom poly-D-lysine coated 96-well FLIPR® plates. After loading the cells with a calcium sensitive dye (Fluo4-AM, Molecular Devices), the cells are bathed in a solution containing low chloride (chloride replaced by gluconate). Under these conditions activation of GABAA receptors causes an efflux of chloride ions (in the direction of the chemical gradient), which results in membrane depolarization and consequently activation of voltage gated calcium channels (VGCCs). Calcium influx through VGCCs is recorded and analysed offline using the FLIPR® system. For a pharmacological validation of the assay, concentration response curves (CRC) are recorded for the standard agonist (GABA) and standard antagonist (Gabazine). […]
The antagonist effects of compounds are quantified using 10-point dose response curves by comparing the peak fluorescent responses to the agonist GABA in the presence and absence of compound. […] Antagonist effects are calculated as a percent of the assay window. […]

Adrenergic alpha1A = Adrenergic alpha1A (Homo sapiens, UniProt P35348); experiment: Adrenergic alpha1A binding
Protocol: as §1, §2

H1 receptors = H1 receptors (Homo sapiens, UniProt P35367); experiment: H1 receptor binding
Protocol: as §1, §2

Dopamine D1 = Dopamine D1 (Homo sapiens, UniProt P21728); experiment: Dopamine D1 binding
Protocol: as §1, §2

Dopamine Transporter = Dopamine Transporter (Homo sapiens, UniProt Q01959); experiment: Dopamine transporter binding
Protocol: as §1, §2

Adrenergic alpha2A = Adrenergic alpha2A (Homo sapiens, UniProt P08913); experiment: Adrenergic alpha2A binding
Protocol: as §1, §2

Dopamine D3 = Dopamine D3 (Homo sapiens, UniProt P35462); experiment: Dopamine D3 binding
Protocol: as §1, §2

Dopamine D2 = Dopamine D2 (Homo sapiens, UniProt P14416); experiment: Dopamine D2 binding
Protocol: as §1, §2

Serotonin Transporter = Serotonin Transporter (Homo sapiens, UniProt P31645); experiment: Serotonin transporter binding
Protocol: as §1, §2

Adrenergic alpha1B = Adrenergic alpha1B (Homo sapiens, UniProt P35368); experiment: Adrenergic alpha1B binding
Protocol: as §1, §2

5-HT2B = 5-HT2B (Homo sapiens, UniProt P41595); experiment: 5-HT2B binding (selectivity data)
Protocol: as §1, §2

[2] = molecular target: recombinant human 5-HT2A receptor (Homo sapiens, UniProt P28223); experiment: 5-HT2A competition binding assay ([3H]-Ketanserin, SPA); parameters: expressed in transfected cells
Protocol: [^3H]-Ketanserin binding experiments are carried out in SPA 96-well format. Membranes used in this assay are prepared from AV-12 cells stably expressing recombinant 5-HT2A receptors (human). The incubation is initiated by the addition of a mixture of WGA YSi SPA beads (1 mg/well, Perkin Elmer (MA, USA), Product No. RPNQ0011) and 2 μg membranes to assay buffer (67 mM Tris, 0.5 mM EDTA; pH 7.6) containing 3.1 nM [^3H]-Ketanserin and varying concentrations of the test compound (10 point concentration response curves). Non-specific binding is determined in the presence of 20 μM 1-(1-naphthyl)piperazine. Samples are incubated for 4 hr. at room temperature (22° C.) and then read in a microplate scintillation counter.
as §3

Dopamine Transporter, sequence (Q01959 whole entry): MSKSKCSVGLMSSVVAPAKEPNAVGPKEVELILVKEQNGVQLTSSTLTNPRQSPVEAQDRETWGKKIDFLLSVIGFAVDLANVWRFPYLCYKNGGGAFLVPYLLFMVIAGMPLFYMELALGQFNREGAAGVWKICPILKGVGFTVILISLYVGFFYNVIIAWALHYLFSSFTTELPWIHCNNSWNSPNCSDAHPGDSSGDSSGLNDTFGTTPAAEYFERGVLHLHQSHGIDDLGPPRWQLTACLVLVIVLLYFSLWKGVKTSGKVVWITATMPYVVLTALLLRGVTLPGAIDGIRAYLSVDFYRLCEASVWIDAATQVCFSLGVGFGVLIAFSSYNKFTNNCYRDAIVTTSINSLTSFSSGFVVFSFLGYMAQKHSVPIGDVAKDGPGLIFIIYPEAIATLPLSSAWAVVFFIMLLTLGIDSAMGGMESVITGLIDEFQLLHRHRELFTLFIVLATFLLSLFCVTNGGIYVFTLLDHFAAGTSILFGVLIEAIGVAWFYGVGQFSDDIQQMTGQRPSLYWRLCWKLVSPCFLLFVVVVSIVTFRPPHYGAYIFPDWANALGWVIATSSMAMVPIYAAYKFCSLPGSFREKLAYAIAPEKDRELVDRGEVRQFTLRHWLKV
Adrenergic alpha1A, sequence (P35348 whole entry): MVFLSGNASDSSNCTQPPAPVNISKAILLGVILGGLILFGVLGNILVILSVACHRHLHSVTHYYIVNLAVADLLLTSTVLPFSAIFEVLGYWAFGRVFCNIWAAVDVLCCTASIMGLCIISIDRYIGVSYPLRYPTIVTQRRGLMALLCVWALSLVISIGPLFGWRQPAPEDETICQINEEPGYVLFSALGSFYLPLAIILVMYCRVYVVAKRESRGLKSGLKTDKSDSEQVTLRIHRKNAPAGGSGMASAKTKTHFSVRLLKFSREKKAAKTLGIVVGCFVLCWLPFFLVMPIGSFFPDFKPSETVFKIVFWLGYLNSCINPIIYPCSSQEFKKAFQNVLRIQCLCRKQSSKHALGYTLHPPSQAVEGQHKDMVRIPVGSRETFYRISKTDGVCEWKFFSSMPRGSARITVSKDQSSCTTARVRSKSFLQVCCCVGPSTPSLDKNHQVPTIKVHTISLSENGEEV
Dopamine D2, sequence (P14416 whole entry): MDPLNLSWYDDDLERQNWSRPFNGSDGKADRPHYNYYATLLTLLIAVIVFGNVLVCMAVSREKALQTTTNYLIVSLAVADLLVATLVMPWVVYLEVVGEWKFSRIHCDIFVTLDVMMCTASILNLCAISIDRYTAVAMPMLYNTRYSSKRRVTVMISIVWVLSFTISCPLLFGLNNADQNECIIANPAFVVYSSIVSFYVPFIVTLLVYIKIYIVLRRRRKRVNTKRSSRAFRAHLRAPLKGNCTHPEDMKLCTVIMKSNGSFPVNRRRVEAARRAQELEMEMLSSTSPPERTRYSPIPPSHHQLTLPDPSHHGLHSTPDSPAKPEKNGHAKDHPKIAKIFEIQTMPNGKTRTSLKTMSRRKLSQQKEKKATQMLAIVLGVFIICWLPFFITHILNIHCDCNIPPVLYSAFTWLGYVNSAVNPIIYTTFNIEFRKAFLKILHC
H1 receptors, sequence (P35367 whole entry): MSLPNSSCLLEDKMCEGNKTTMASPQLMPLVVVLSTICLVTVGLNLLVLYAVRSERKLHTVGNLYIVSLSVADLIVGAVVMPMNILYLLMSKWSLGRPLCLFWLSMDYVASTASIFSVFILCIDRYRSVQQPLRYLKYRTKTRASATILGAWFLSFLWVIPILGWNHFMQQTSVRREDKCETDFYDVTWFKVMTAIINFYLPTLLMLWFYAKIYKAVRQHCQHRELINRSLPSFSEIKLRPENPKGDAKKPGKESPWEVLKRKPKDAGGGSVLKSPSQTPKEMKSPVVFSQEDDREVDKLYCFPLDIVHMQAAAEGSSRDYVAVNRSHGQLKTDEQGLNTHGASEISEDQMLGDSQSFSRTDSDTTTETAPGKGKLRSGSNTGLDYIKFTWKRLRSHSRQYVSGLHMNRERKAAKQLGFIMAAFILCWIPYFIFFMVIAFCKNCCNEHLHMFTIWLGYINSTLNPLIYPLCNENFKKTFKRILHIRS
T1 sequence (P28335 33-458): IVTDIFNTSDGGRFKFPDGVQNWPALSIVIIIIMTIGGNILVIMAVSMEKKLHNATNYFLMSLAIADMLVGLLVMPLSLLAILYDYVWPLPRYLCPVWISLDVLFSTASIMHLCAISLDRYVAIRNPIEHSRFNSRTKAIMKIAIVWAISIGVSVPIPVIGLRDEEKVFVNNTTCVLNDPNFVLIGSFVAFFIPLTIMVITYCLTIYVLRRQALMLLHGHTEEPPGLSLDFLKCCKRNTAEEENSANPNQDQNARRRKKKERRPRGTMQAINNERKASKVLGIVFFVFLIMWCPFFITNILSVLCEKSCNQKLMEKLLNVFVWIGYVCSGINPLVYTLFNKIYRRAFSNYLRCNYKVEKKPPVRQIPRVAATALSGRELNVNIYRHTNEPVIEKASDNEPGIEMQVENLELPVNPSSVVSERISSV
recombinant human 5-HT2A receptor, sequence (P28223 whole entry): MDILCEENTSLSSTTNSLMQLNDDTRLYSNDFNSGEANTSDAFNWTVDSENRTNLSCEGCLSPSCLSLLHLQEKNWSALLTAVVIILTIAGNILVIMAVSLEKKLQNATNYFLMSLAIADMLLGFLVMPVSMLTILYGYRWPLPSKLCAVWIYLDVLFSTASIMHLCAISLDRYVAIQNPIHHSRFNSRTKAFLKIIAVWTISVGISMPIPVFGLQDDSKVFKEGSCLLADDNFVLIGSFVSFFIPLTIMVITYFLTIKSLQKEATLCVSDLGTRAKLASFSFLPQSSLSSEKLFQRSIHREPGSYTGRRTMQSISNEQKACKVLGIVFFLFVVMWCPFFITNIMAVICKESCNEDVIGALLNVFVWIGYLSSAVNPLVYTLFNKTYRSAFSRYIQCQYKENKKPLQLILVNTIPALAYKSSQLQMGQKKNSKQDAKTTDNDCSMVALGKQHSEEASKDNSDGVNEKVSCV
Adrenergic alpha2A, sequence (P08913 whole entry): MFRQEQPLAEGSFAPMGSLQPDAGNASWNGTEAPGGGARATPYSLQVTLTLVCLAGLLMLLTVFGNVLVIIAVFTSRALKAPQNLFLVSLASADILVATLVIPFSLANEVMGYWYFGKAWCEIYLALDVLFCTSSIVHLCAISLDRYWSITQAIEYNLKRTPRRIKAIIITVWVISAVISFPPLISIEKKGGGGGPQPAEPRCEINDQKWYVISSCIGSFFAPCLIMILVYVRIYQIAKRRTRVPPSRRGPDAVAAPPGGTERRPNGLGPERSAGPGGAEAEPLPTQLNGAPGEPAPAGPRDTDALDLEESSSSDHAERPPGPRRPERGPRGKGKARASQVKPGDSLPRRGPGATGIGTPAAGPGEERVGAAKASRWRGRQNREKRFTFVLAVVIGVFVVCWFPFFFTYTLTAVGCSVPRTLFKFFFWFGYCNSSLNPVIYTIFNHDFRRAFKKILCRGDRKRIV
Dopamine D1, sequence (P21728 whole entry): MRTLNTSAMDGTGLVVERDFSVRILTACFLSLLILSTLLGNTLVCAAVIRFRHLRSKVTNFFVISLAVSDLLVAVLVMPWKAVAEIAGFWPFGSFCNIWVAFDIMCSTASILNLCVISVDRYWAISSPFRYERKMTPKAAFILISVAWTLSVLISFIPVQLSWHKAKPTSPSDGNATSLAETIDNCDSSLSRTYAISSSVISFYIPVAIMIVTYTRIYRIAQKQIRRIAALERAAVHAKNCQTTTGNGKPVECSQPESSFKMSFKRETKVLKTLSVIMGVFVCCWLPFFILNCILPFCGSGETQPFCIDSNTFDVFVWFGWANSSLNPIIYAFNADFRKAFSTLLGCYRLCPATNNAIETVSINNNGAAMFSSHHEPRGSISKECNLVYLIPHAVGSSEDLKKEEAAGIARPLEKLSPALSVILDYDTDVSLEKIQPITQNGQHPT
5-HT2B, sequence (P41595 whole entry, species assumed): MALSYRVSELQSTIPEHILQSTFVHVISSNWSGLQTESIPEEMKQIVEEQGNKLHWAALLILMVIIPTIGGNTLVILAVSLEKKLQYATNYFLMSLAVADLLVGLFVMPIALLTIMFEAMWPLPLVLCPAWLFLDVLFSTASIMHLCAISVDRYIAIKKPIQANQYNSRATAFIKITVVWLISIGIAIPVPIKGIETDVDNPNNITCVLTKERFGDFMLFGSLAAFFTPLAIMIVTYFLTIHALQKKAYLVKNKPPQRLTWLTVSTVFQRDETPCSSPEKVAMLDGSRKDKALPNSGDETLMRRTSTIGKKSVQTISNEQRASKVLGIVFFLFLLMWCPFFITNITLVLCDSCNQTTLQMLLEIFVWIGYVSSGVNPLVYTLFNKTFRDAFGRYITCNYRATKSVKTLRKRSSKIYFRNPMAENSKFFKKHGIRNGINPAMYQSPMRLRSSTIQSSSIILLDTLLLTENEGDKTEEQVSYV
Adrenergic alpha1B, sequence (P35368 whole entry): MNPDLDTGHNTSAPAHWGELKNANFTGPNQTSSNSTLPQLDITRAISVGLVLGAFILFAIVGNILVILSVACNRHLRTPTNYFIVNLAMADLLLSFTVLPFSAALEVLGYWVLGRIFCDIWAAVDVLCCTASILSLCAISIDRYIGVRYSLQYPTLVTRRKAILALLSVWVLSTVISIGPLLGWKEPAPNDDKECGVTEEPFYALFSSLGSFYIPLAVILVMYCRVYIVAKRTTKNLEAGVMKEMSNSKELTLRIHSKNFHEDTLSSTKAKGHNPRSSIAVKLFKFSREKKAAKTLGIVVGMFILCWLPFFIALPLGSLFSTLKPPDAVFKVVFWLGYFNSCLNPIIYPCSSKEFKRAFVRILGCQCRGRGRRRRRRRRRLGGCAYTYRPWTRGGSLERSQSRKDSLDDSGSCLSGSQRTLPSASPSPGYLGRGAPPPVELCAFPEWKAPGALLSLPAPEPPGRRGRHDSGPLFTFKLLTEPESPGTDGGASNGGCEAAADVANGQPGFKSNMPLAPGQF

In the case of `Cc1ccc2c(c1)Oc1sc(SC(C)C)cc1C(N1CCN(CC(C)(C)C(=O)O)CC1)=N2` [Example 2, 3-[4-(2-Isopropylsulfanyl-8-methyl-thieno[2,3-b][1,5]benzoxazepin-4-yl)piperazin-1-yl]-2,2-dimethyl-propanoic acid dihydrochloric acid salt], the pKi (Adrenergic alpha2C) was under 5.17, the pKi (Norepinephrine Transport) was under 6.16 and the pKi [1] was 6.11. It also gave a pIC50 (native GABAA receptors) of 4.39, a pKi (Adrenergic alpha1A) of under 4.87 and a pKi (H1 receptors) of 6.05. For the same molecule, the pKi (Dopamine D1) was 5.42, the pKi (Dopamine Transporter) was under 6.06 and the pKi (Adrenergic alpha2A) was under 5.05. The pKi (Dopamine D3) was under 5.23, the pKi (Dopamine D2) was under 5.44 and the pKi (Serotonin Transporter) was under 6.19. The pKi (Adrenergic alpha1B) was 4.98, the pKi (5-HT2B) was 6.12 and the pKi [2] was 8.21.

From US20150322083A1, “(THIENO[2,3-b][1,5]BENZOXAZEPIN-4-YL)PIPERAZIN-1-YL COMPOUNDS AS SELECTIVE 5-HT2A INVERSE AGONISTS” (Eli Lilly and Company, priority 2014, published 2015)
